Test results as given in PubChem BioAssay AID1194 (EPA DSSTox, 2008).
Active and inactive are the calls of the source.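 The calls were made as follows: active = chemicals rated mutagenic or weakly mutagenic in the Salmonella bacterial test by one literature review, or positive overall by another; inconclusive = no clear call, values can overlap the other calls; inactive = the rest.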 Numbered stars: 1 amine (or outer) side, 2 acyl side, 3 side chain; on linkers, the order of the positions; unused ones are H or OH. Bridge positions count the residues as written; N and C are the ends. Square brackets hold non-standard residues; d marks the D form. Peptide text beside a SMILES is read from it. I, II: the chains in the order shown. Actinocin(9to1) = Cc1c2oc3c(C)ccc(C(=O)[*:1])c3nc-2c(C(=O)[*:2])c(N)c1=O; NMeV = CN[C@H](C(=O)O)C(C)C; Sar = CNCC(=O)O

System: Salmonella typhimurium Ames mutagenicity, literature compiled
Assay: DSSTox (CPDBAS) Carcinogenic Potency Database Salmonella Mutagenicity
How it was run: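 Calls derive from published evaluations rather than new testing; overall "positive" in EPA Gene-Tox, or "mutagenic"/"weakly mutagenic" per Zeiger, counts as active.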

| Structure (SMILES) | outcome |
| --- | --- |
| C=C(C)C#N | inactive; active |
| O=P1(N(CCCl)CCCl)NCCCO1 (stereo not drawn) | active |
| S=c1nc[nH]c2nc[nH]c12 | active |
| Clc1ccccc1 | inactive; active |
| Nc1cc([N+](=O)[O-])ccc1O | active |
| O=c1ccc2ccccc2o1 | active; inactive |
| CC[C@H]1CN2CCc3cc(OC)c(OC)cc3[C@@H]2C[C@@H]1C[C@H]1NCCc2cc(OC)c(OC)cc21 | inactive; active |
| C[C@]12C=CC(=O)C=C1CC[C@@H]1[C@@H]2[C@@H](O)C[C@@]2(C)[C@H]1CC[C@]2(O)C(=O)CO | inactive; active |
| CC1=NN(c2ccccc2)C(=O)C1 | inactive |
| OB(O)O | inactive |
| NC(=S)NNC(N)=S | inactive; inconclusive |
| CC(=O)NCc1nc(-c2ccc([N+](=O)[O-])o2)no1 | active |
| CCOP(=S)(OCC)Oc1nc(Cl)c(Cl)cc1Cl | inactive |
| Cc1cc(Cc2ccc(N)c(C)c2)ccc1N | active |
| BrC(Br)Br | active |
| ClCc1ccccn1 | active |
| O=C(c1ccccc1)C(O)c1ccccc1 (stereo not drawn) | inactive |
| Cc1ccc2cc3c(ccc4ccccc43)c3c2c1CC3 | active |
| CCCCOCCO | inactive; active |
| CN(C)c1ccccc1 | inactive |
| O=C(O)C(Cl)Cl | active |
| Cc1ccc(C)c(N)c1 | active; inactive |
| CCCCOC(=O)c1ccc(O)cc1 | inactive; active |
| COc1ccc(C)cc1N | active |
| C/C=C/c1ccc2c(c1)OCO2 | inactive; active |
| CC(O)COC(C)(C)C (stereo not drawn) | active; inactive |

| Structure (SMILES) | outcome |
| --- | --- |
| CC(COc1ccccc1)N(CCCl)Cc1ccccc1 (stereo not drawn) | active; inactive |
| NC(N)=O | inactive; active |
| O=C(OOC(=O)c1ccccc1)c1ccccc1 | inactive; active |
| [Cl-].[Cl-].[Hg+2] | inactive; active |
| Cc1c2oc3c(C)ccc(C(=O)N[C@@H]4C(=O)N[C@H](C(C)C)C(=O)N5CCC[C@H]5C(=O)N(C)CC(=O)N(C)[C@@H](C(C)C)C(=O)O[C@@H]4C)c3nc-2c(C(=O)N[C@@H]2C(=O)N[C@H](C(C)C)C(=O)N3CCC[C@H]3C(=O)N(C)CC(=O)N(C)[C@@H](C(C)C)C(=O)O[C@@H]2C)c(N)c1=O (I: T[dV]P[Sar][NMeV] / II: T[dV]P[Sar][NMeV]; ester I:1-I:C, II:1-II:C; linker I:N-II:N via Actinocin(9to1)) | inactive; active |
| O=P1(NCCCl)OCCCN1CCCl (stereo not drawn) | active; inactive |
| CN(C)C(=O)Nc1ccc(Cl)cc1 | inactive; active |
| CCOC(=O)CC(SP(=S)(OC)OC)C(=O)OCC (stereo not drawn) | inactive |
| Cc1cc(O)c2c(c1)C(=O)c1cc(O)cc(O)c1C2=O | active |
| ClC1C(Cl)C(Cl)C(Cl)C(Cl)C1Cl (stereo not drawn) | inactive; active |
| O=S(=O)(O)c1ccc(N=Nc2cc(S(=O)(=O)O)c3ccccc3c2O)c2ccccc12 | active; inactive |
| CC(=O)N(O)c1ccc2c(c1)Cc1ccccc1-2 | active; inactive |
| CCCCCC | inactive |
| ClC(Br)Br | inactive |
| CCCl | active |
| O=C1NC(c2ccc([N+](=O)[O-])s2)Nc2ccccc21 (stereo not drawn) | active |
| Nc1ccc(Cc2ccc(N)cc2)cc1 | active |
| CCSCC[C@H](N)C(=O)O | inactive |
| c1ccc2cc(Nc3ccc(Nc4ccc5ccccc5c4)cc3)ccc2c1 | active |
| O=S1(=O)OCCO1 | inactive |
| CCOC(N)=O | active; inactive |
| CCCC[C@H](C)[C@@H](OC(=O)C[C@H](CC(=O)O)C(=O)O)[C@@H](C[C@H](C)C[C@@H](O)CCCC[C@@H](O)C[C@H](O)[C@H](C)N)OC(=O)C[C@H](CC(=O)O)C(=O)O | inactive |
| C[N+](C)(C)CCO | inactive; active |
| Nc1ccc(-c2ccc(N)cc2)cc1 | active |
| O=Cc1ccccc1 | inactive; active |
| CCC(Br)(CC)C(=O)NC(N)=O | inactive |

| Structure (SMILES) | outcome |
| --- | --- |
| C[C@](N)(Cc1ccc(O)c(O)c1)C(=O)O | inactive |
| ClCCl | active; inactive |
| CC(C)[N+](=O)[O-] | active |
| CCN(CC)C(=S)S[Te](SC(=S)N(CC)CC)(SC(=S)N(CC)CC)SC(=S)N(CC)CC | inactive |
| CC[C@H]1OC(=O)[C@H](C)[C@@H](O[C@H]2C[C@@](C)(OC)[C@@H](O)[C@H](C)O2)[C@H](C)[C@@H](O[C@@H]2O[C@H](C)C[C@H](N(C)C)[C@H]2O)[C@](C)(O)C[C@@H](C)C(=O)[C@H](C)[C@@H](O)[C@]1(C)O | inactive |
| OCC1CO1 (stereo not drawn) | active; inactive |
| CN(CCc1ccccc1)N=O | active |
| OCCBr | active |
| C1N2CN3CN1CN(C2)C3 | active |
| Nc1ccc(Sc2ccc(N)cc2)cc1 | active; inactive |
| CN(C)C(=O)Nc1cccc(C(F)(F)F)c1 | inactive |
| FC(Cl)(Cl)Cl | inactive; active |
| O=NN1CC=CCC1 | active |
| CN(C)P(=O)(N(C)C)N(C)C | inactive |
| ClCC(Br)CBr (stereo not drawn) | active; inactive |
| CC(=O)OC/C=C(\C)CCC=C(C)C | inactive |
| c1ccncc1 | inactive |
| Cc1cccc2cccnc12 | active |
| CCCC[N+](=O)[O-] | inactive; active |
| S=C1NCCN1 | active |
| COc1ccc(N)c(C)c1 | active; inactive |
| CC(Cl)Cl | inactive; active |
| OC[C@H]1O[C@@](CO)(O[C@H]2O[C@H](CO)[C@@H](O)[C@H](O)[C@H]2O)[C@@H](O)[C@@H]1O | inactive; active |
| Nc1nc(N)nc(N)n1 | inactive; active |
| O=C(O)CN(CC(=O)O)CC(=O)O | inactive; active |
| Nc1ccc2c(c1)C(=O)c1ccccc1C2=O | active |

| Structure (SMILES) | outcome |
| --- | --- |
| NCC(=O)O | inactive |
| CC(=O)Nc1ccc(N=Nc2cc(C)ccc2O)cc1 | active |
| O=C(O)c1ccccc1-c1c2cc(I)c(=O)c(I)c-2oc2c(I)c(O)c(I)cc12 | inactive |
| Nc1ccc([N+](=O)[O-])cc1O | active |
| CC1=C2C(=CO[C@@H](C)[C@@H]2C)C(=O)C(C(=O)O)=C1O | inactive; active |
| Cc1cc2ncccc2c2nc(N)n(C)c12 | active |
| O=C1c2ccccc2C(=O)c2ccccc21 | active; inactive |
| CN(C)N=Nc1ccccc1 | active |
| CN(C)/N=N/c1nc[nH]c1C(N)=O | active |
| CC#N | inactive |
| Clc1ccc2c(c1)Oc1ccc(Cl)cc1O2 | inactive |
| c1ccc(N=Nc2ccccc2)cc1 | active |
| CC(CN1c2ccccc2Sc2ccccc21)N(C)C (stereo not drawn) | inactive |
| CCCCN(CCCCO)N=O | active; inactive |
| Cl/C=C/CCl | active; inactive |
| O=C(O)c1ccccc1 | inactive |
| CC(N)Cc1ccccc1 (stereo not drawn) | inactive |
| CCOC(=O)N(C)N=O | active |
| c1ccc(C2CO2)cc1 (stereo not drawn) | active; inactive |
| N[C@@H](Cc1ccc(N(CCCl)CCCl)cc1)C(=O)O | active; inactive |
| c1ccc2occc2c1 | inactive; active |
| CCOP(=S)(OCC)Oc1cc(C)nc(C(C)C)n1 | inactive; active |
| Nc1cc(Cl)c(N)c(Cl)c1 | active |
| Cc1cc(O)c(C(C)(C)C)cc1Sc1cc(C(C)(C)C)c(O)cc1C | inactive; active |
| CCCCCC(N)=O | inactive; active |
